Values of other authors in patent publication US6468963B1, “Methods and formulations for reducing toxicity associated with diabetes treatments” (BioNumerik Pharmaceuticals, Inc., priority 2000, dated 2002).

Legend:
[1] = test system: dogs; conditions: doses higher than 3750 mg/kg (accepted LD50 for common table salt)
[2] = test system: humans; conditions: doses exceeding 40 g/m^2
[3] = test system: mice; conditions: doses higher than 3750 mg/kg (accepted LD50 for common table salt)
[4] = accepted value; species not stated

Row | Structure (SMILES) | adverse effects [1] | adverse effects [2] | adverse effects [3] | LD50 [4] [mg/kg]
1 | O=S(=O)([O-])CCSSCCS(=O)(=O)[O-].[Na+].[Na+] [Dimesna, disodium 2,2′-dithiobis ethane sulfonate] | no adverse effects | no adverse effects | no adverse effects | –
2 | [Cl-].[Na+] [common table salt] | – | – | – | 3750
